# Experimental data: patent US8404718B2, “Combinations of pyrazole kinase inhibitors” (Astex Therapeutics Limited, priority 2005, dated 2013)
# Columns and labels:
# [1] = system: human colon carcinoma cell line HCT 116; experiment: Anti-proliferative activity, Alamar Blue assay; assay type: cell-based; conditions: 72 hours compound incubation, read-out: IC50, inhibition of cell growth, HCT 116
# Procedure: The anti-proliferative activities of the combinations of the invention, as well as the individual components of the combinations, are determined by measuring the ability of the compounds to inhibition of cell growth in a number of cell lines. Inhibition of cell growth is measured using the Alamar Blue assay (Nociari, M. M, Shalev, A., Benias, P., Russo, C. Journal of Immunological Methods 1998, 213, 157-167). The method is based on the ability of viable cells to reduce resazurin to its fluorescent product resorufin. For each proliferation assay cells are plated onto 96 well plates and allowed to recover for 16 hours prior to the addition of inhibitor compounds for a further 72 hours. At the end of the incubation period 10% (v/v) Alamar Blue is added and incubated for a further 6 hours prior to determination of fluorescent product at […]. In the case of the non-proliferating cell assay cells are maintained at confluence for 96 hour prior to the addition of inhibitor compounds for a further 72 hours. The number of viable cells is determined by Alamar Blue assay as before. All cell lines are obtained from ECACC (European Collection of cell Cultures).
# Activated CDK2/CyclinA = Activated CDK2/CyclinA (Homo sapiens, UniProt P24941); experiment: Activated CDK2/CyclinA kinase inhibitory activity assay (IC50), Example 250A; assay type: biochemical
# Procedure: Compounds of the invention were tested for kinase inhibitory activity using the following protocol.
# The reaction is allowed to proceed for 2 to 4 hours before being stopped with an excess of ortho-phosphoric acid (5 μl at 2%).
# γ^33P-ATP which remains unincorporated into the histone H1 is separated from phosphorylated histone H1 on a Millipore MAPH filter plate. The wells of the MAPH plate are wetted with 0.5% orthophosphoric acid, and then the results of the reaction are filtered with a Millipore vacuum filtration unit through the wells. Following filtration, the residue is washed twice with 200 μl of 0.5% orthophosphoric acid. Once the filters have dried, 20 μl of Microscint 20 scintillant is added, and then counted on a Packard Topcount for 30 seconds.
IC50 [1] [µM],IC50 (Activated CDK2/CyclinA) [µM],Structure (SMILES)
< 20,,"O=C(Nc1ccc(F)cc1)c1n[nH]cc1NC(=O)C1CCCCC1 [Example 27, 4-(Cyclohexanecarbonyl-amino)-1H-pyrazole-3-carboxylic acid (4-fluoro-phenyl)-amide]"
< 20,,"O=C(Nc1c[nH]nc1C(=O)Nc1ccc(F)cc1)c1ccccc1OCCN1CCCC1 [Example 52, 4-[2-(2-Pyrrolidin-1-yl-ethoxy)-benzoylamino]-1H-pyrazole-3-carboxylic acid 4-fluorophenylamide]"
< 20,,O=C(NC1CCOCC1)c1n[nH]cc1NC(=O)c1c(F)cccc1F [Example 66]
< 20,,O=C(NCC1CCOCC1)c1n[nH]cc1NC(=O)c1c(F)cccc1F [Example 67]
< 20,,O=C(NCC1CCCCC1)c1n[nH]cc1NC(=O)c1c(F)cccc1F [Example 69]
< 20,,O=C(NC1CCCC1)c1n[nH]cc1NC(=O)c1c(F)cccc1F [Example 75]
< 20,,O=C(NCC1CC1)c1n[nH]cc1NC(=O)c1c(F)cccc1F [Example 79]
< 20,,"CCOC(=O)C1CCC(NC(=O)c2n[nH]cc2NC(=O)c2c(F)cccc2F)CC1 (centres unmarked) [Example 83A, 4-{[4-(2,6-difluoro-benzoylamino)-1H-pyrazole-3-carbonyl]-amino}-cyclohexanecarboxylic acid ethyl ester]"
< 100,,O=C(NC1CCN(Cc2ccccc2)C1)c1n[nH]cc1NC(=O)c1c(F)cccc1F (centres unmarked) [Example 85]
< 20,,O=C(NCc1ccccc1)c1n[nH]cc1NC(=O)c1c(F)cccc1F [Example 90]
< 20,,O=C(NC1CCC(O)CC1)c1n[nH]cc1NC(=O)c1c(F)cccc1F (centres unmarked) [Example 95]
< 20,,CC(C)(C)OC(=O)N1CCCC(CNC(=O)c2n[nH]cc2NC(=O)c2c(F)cccc2F)C1 (centres unmarked) [Example 97]
,< 20,O=C(NC[C@H]1CC[C@H](NC(=O)c2n[nH]cc2NC(=O)c2c(F)cccc2F)CC1)OCc1ccccc1 [Example 130]
,< 20,O=C(Nc1ccccc1)Nc1c[nH]nc1C(=O)N[C@H]1CC[C@H](O)CC1 [Example 156]
,< 20,O=C(N[C@H]1CC[C@@H](N2CCOCC2)CC1)c1n[nH]cc1NC(=O)c1c(F)cccc1F [Example 168]
,< 20,CC(C)(C)CNC(=O)Nc1c[nH]nc1C(=O)N[C@H]1CC[C@H](O)CC1 [Example 169]
,< 20,O=C(N[C@H]1CC[C@@H](NC2CCOCC2)CC1)c1n[nH]cc1NC(=O)c1c(F)cccc1F [Example 170]

IC50 [1] [µM],IC50 (Activated CDK2/CyclinA) [µM],Structure (SMILES)
,< 20,CN1CCC(NC(=O)Nc2c[nH]nc2C(=O)N[C@H]2CC[C@H](O)CC2)CC1 [Example 171]
,< 20,CC(C)(C)OC(=O)N1CCC(NC(=O)c2n[nH]cc2NC(=O)c2ccccc2)CC1 [Example 172]
,< 20,CC(C)(C)OC(=O)N1CCC(NC(=O)c2n[nH]cc2NC(=O)c2ccc(F)cc2)CC1 [Example 173]
,< 20,CN1CCC(N2CCC(NC(=O)c3n[nH]cc3NC(=O)c3c(F)cccc3F)CC2)CC1 [Example 177]
,< 20,CN1CCC(C(=O)Nc2c[nH]nc2C(=O)NCC2CC2)CC1 [Example 181]
< 100,,Cn1nc(C(C)(C)C)cc1C(=O)Nc1c[nH]nc1C(=O)NCC1CC1 [Example 183]
< 20,,O=C(NC1CCNC1)c1n[nH]cc1NC(=O)c1c(F)cccc1F (centres unmarked) [Example 185]
< 20,,O=C(Nc1c[nH]nc1C(=O)NC1CCNCC1)c1cccc2c1OCCO2 [Example 192]
< 20,,O=C(NC1CCNCC1)c1n[nH]cc1NC(=O)c1cnn2ccccc12 [Example 193]
< 20,,COc1nc(Cl)cc(C)c1C(=O)Nc1c[nH]nc1C(=O)NC1CCNCC1 [Example 195]
< 20,,CN1CCC(NC(=O)c2n[nH]cc2NC(=O)c2c(F)cc(F)cc2F)CC1 [Example 205]
< 20,,CN1CCN(NC(=O)c2n[nH]cc2NC(=O)c2c(Cl)cccc2Cl)CC1 [Example 207]
< 20,,COC1CCC(NC(=O)c2n[nH]cc2NC(=O)c2c(Cl)cccc2Cl)CC1 (centres unmarked) [Example 210]
< 20,,CN1CCN(c2cc(F)cc(C(=O)Nc3c[nH]nc3C(=O)NC3CCC(C(C)(C)C)CC3)c2)CC1 (centres unmarked) [Example 214]
< 20,,O=C(NC1CCN(CC2CCOC2)CC1)c1n[nH]cc1NC(=O)c1c(Cl)cccc1Cl (centres unmarked) [Example 219]
< 20,,O=C(NC1CCN(C2CCOCC2)CC1)c1n[nH]cc1NC(=O)c1c(F)cccc1F [Example 221]

# The next lines start with the compound.
Structure (SMILES),IC50 [1] [µM],IC50 (Activated CDK2/CyclinA) [µM]
"O=C(Nc1ccc(F)cc1)c1n[nH]cc1NC(=O)C(F)(F)F [Example 3, 4-(2,2,2-Trifluoro-acetylamino)-1H-pyrazole-3-carboxylic acid (4-fluoro-phenyl)-amide]",< 100,
"O=C(CCc1ccc(Cl)cc1)Nc1c[nH]nc1C(=O)Nc1ccc(F)cc1 [Example 10, 4-[3-(4-Chloro-phenyl)-propionylamino]-1H-pyrazole-3-carboxylic acid (4-fluoro-phenyl)-amide]",< 20,
"COc1ccccc1C(=O)Nc1c[nH]nc1C(=O)Nc1ccc(F)cc1 [Example 25, 4-(2-Methoxy-benzoylamino)-1H-pyrazole-3-carboxylic acid (4-fluoro-phenyl)-amide]",< 20,
"O=C(CO)Nc1c[nH]nc1C(=O)Nc1ccc(F)cc1 [Example 29, 4-(2-Hydroxy-acetylamino)-1H-pyrazole-3-carboxylic acid (4-fluoro-phenyl)-amide]",< 100,
"O=C(Nc1c[nH]nc1C(=O)Nc1ccc(F)cc1)c1ccco1 [Example 38, 4-[(Furan-2-carbonyl)-amino]-1H-pyrazole-3-carboxylic acid (4-fluoro-phenyl)-amide]",< 100,
"O=C(Nc1c[nH]nc1C(=O)Nc1ccc(F)cc1)c1cnc[nH]1 [Example 39, 4-[(3H-Imidazole-4-carbonyl)-amino]-1H-pyrazole-3-carboxylic acid (4-fluoro-phenyl)-amide]",< 100,
"O=C(Nc1c[nH]nc1C(=O)Nc1ccc(F)cc1)c1ccc(CO)cc1 [Example 44, 4-(4-Hydroxymethyl-benzoylamino)-1H-pyrazole-3-carboxylic acid (4-fluoro-phenyl)-amide]",< 20,
"Cc1ccccc1C(=O)Nc1c[nH]nc1C(=O)Nc1ccc(F)cc1 [Example 46, 4-(2-Methyl-benzoylamino)-1H-pyrazole-3-carboxylic acid (4-fluoro-phenyl)-amide]",< 20,
"O=C(Nc1c[nH]nc1C(=O)Nc1ccc(F)cc1)c1ccc2ccccc2n1 [Example 49, Quinoline-2-carboxylic acid[3-(4-fluoro-phenylcarbamoyl)-1H-pyrazol-4-yl]-amide]",< 100,
"O=C(Nc1c[nH]nc1C(=O)Nc1ccc(F)cc1)c1ccsc1 [Example 50, 4-[(Thiophene-3-carbonyl)-amino]-1H-pyrazole-3-carboxylic acid (4-fluoro-phenyl)-amide]",< 20,
"COc1cccc(C(=O)Nc2c[nH]nc2C(=O)Nc2ccc(F)cc2)c1F [Example 51, 4-(2-fluoro-3-methoxy-benzoylamino)-1H-pyrazole-3-carboxylic acid (4-fluoro-phenyl)-amide]",< 100,
COc1cccc(OC)c1C(=O)Nc1c[nH]nc1C(=O)Nc1ccc(F)cc1 [Example 60],< 20,
O=C(Nc1cccc(CO)c1)c1n[nH]cc1NC(=O)c1c(F)cccc1F [Example 73],< 20,
O=C(Nc1cccc(CN2CCOCC2)c1)c1n[nH]cc1NC(=O)c1c(F)cccc1F [Example 74],< 20,
Cc1[nH]nc(C(=O)Nc2ccc(F)cc2)c1NC(=O)c1c(F)cccc1F [Example 80],< 20,
O=C(NCc1ccccn1)c1n[nH]cc1NC(=O)c1c(F)cccc1F [Example 89],< 100,
O=C(NCc1ccccc1Cl)c1n[nH]cc1NC(=O)c1c(F)cccc1F [Example 91],< 20,
O=C(NCc1ccccc1F)c1n[nH]cc1NC(=O)c1c(F)cccc1F [Example 92],< 20,
O=C(NCC1CCCNC1)c1n[nH]cc1NC(=O)c1c(F)cccc1F (centres unmarked) [Example 98],< 20,
O=C(NC1CCNCC1)c1n[nH]cc1NC(=O)c1c(Cl)cccc1Cl [Example 150],< 20,
"O=C(Nc1cc(F)ccc1OCCN1CCCC1)c1n[nH]cc1NC(=O)c1c(F)cccc1F [Example 166, 4-(2,6-Difluoro-benzoylamino)-1H-pyrazole-3-carboxylic acid[5-fluoro-2-(2-pyrrolidin-1-yl-ethoxy)-phenyl]-amide]",< 20,
O=C(N[C@@H]1CN2CCC1CC2)c1n[nH]cc1NC(=O)c1c(F)cccc1F [Example 216],< 100,
O=C(Nc1cccnc1)c1n[nH]cc1NC(=O)c1c(Cl)cccc1Cl [Example 218],< 20,
O=C(Nc1ccncc1)c1n[nH]cc1NC(=O)c1c(Cl)cccc1Cl [Example 220],< 20,
COc1cccc(F)c1C(=O)Nc1c[nH]nc1C(=O)Nc1cccnc1 [Example 222],< 20,
O=C(Nc1cccnc1)c1n[nH]cc1NC(=O)c1c(F)cccc1F [Example 223],< 20,
